The subject of series [1] is rabbit cervix. Briefly: Efficacy on the ripening of the rabbit cervix. To be noted: initial study, 300 μg/ml topical formulation, 0.5 ml intravaginal, eighteen hours. In kind it is in vivo. As to the method: Mature pregnant female New Zealand rabbits weighing 4.5 to 6.0 kg were studied. […] Both hormones were applied intravaginally by means of a syringe and a catheter in a volume of 0.5 ml. Control animals received the vehicle alone. After 16-18 hours, the animals were sacrificed using a lethal dose of pentobarbital. […] Paraffin sections were cut and stained with hematoxylin/eosin and alcian blue PAS. Sections were evaluated for general morphology, and specifically for the degree of separation of muscular tissue and collagen fibrils in the submucosa and for the presence of characteristic PAS positive giant cells, which are multinucleate cells of macrophage origin that normally infiltrate the cervix during labor. The measurement of giant cells is accomplished using the procedure described by MacLennan et al., Am J. Obstet.

The subject of series [2] is cervix. To be noted: infusion of 3000 units in the cervical os; Perezgrovas and Anderson (1982); cited from earlier work.
The test system of series [3] is cervix. To be noted: 2-mg dose in methylcellulose gel; MacLennan et al. (1981); cited from earlier work.
Series [4] is described as follows: Reverse phase HPLC stability of liquid relaxin formulations. To be noted: in Milli-Q water at 5° C., reference material.
Procedure: All buffers were made up to isotonicity (0.154 μ) with the addition of NaCl. […] The resulting 135 100-μL-microvials and 90 1.5-ml-vials were placed on stability tests at 5, 25 and 40° C. Samples were assayed at 0, 7, 21, and 30 days by reverse phase HPLC, ELISA, and cyclic AMP assays. In addition to these assays, the samples were also assayed by near UV circular dichroism (near UV CD) and analytical ultracentrifugation (UC) on days 0 and 30.
The resulting nine samples were each sterile filtered, divided into three equal volumes, and loaded into sterile 300 μL glass microvials. The resulting 27 vials containing about 9 mg were placed on stability testing at 5, 25, and 40° C. for up to 40 days. Samples were assayed by an ELISA assay and a C4 reverse-phase HPLC assay on days 0, 7, 14, 28, and 40. The remaining 3 mg of relaxin was kept in Milli-Q water at 5° C. and used as the reference material. […] These observations were repeated on reference samples used in subsequent stability studies. […]
Study 1: The degradation of relaxin as a function of time was monitored by reverse phase HPLC. […] The fraction of the main peak remaining was computed from triplicate samples (when available), and first-order plots of the degradation kinetics of the main HPLG peak for the five formulations shown in Table I (ranging from 3.0 to 7.5) were determined. […]

For the compound porcine relaxin, in series [1], the “morphology of the pregnant cervix (ripening)” value is “induce changes in the morphology of the pregnant cervix consistent with ripening”. Moreover, the “time to increased dilatation of the cervix” value in series [2] was ≤ 8 h. In addition, the cervical score entry in series [3] is “improve the cervical score”.

As for `CC[C@H](C)[C@@H]1NC(=O)[C@H](C)NC(=O)[C@H]([C@@H](C)CC)NC(=O)[C@H](CCC(N)=O)NC(=O)[C@H](C)NC(=O)[C@H](CCCNC(=N)N)NC(=O)[C@H](C(C)C)NC(=O)[C@H](CC(C)C)NC(=O)[C@H](CCC(=O)O)NC(=O)[C@H](CCCNC(=N)N)NC(=O)CNC(=O)[C@@H](NC(=O)[C@H](CC(C)C)NC(=O)[C@H](CCCCN)NC(=O)[C@@H](NC(=O)[C@@H](NC(=O)[C@H](CCC(=O)O)NC(=O)[C@H](CCC(=O)O)NC(=O)[C@H](CCSC)NC(=O)[C@H](Cc2c[nH]c3ccccc23)NC(=O)[C@H](CO)NC(=O)[C@@H](N)CC(=O)O)C(C)C)[C@@H](C)CC)CSSC[C@@H]2NC(=O)[C@@H](NC(=O)[C@H](CCCCN)NC(=O)[C@H](CC(N)=O)NC(=O)[C@H](C)NC(=O)[C@H](CC(C)C)NC(=O)[C@H](C)NC(=O)[C@H](CO)NC(=O)[C@H](Cc3ccc(O)cc3)NC(=O)[C@H](CC(C)C)NC(=O)[C@@H]3CCC(=O)N3)CSSC[C@H](NC(=O)CNC(=O)[C@H](C(C)C)NC(=O)[C@H](Cc3c[nH]cn3)NC2=O)C(=O)N[C@@H]([C@@H](C)O)C(=O)N[C@@H](CCCCN)C(=O)N[C@@H](CCCNC(=N)N)C(=O)N[C@@H](CO)C(=O)N[C@@H](CC(C)C)C(=O)N[C@@H](C)C(=O)N[C@@H](CCCNC(=N)N)C(=O)N[C@@H](Cc2ccccc2)C(=O)N[C@H](C(=O)O)CSSC[C@@H](C(=O)NCC(=O)N[C@@H](CCSC)C(=O)N[C@@H](CO)C(=O)N[C@H](C(=O)N[C@@H](Cc2c[nH]c3ccccc23)C(=O)N[C@@H](CO)C(=O)N[C@@H](CCCCN)C(=O)N[C@@H](CCCNC(=N)N)C(=O)N[C@@H](CO)C(=O)N[C@@H](CC(C)C)C(=O)O)[C@@H](C)O)NC1=O` [long relaxin], in series [4], the “stability by reverse phase HPLC” value was “stable by reverse phase HPLC for at least five months”.

The values above are taken from patent publication US5451572A (Genentech, Inc., priority 1993, dated 1995).
